The source of these data is PubChem BioAssay (NCI).

Where “and” joins values, the source holds several entries; their conditions need not be identical. Identical values can stand only once.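 Dose response: 5 concentrations. Exposure: 48 h. Format: 96-well plates. Endpoint: linear interpolation; highest concentration if not reached. Abbreviation: GI50, concentration required for 50% inhibition of growth. Definition used: TGI = concentration required for complete inhibition of growth.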 Where only a bound is given, the exact number is not on record here.

Test in all cases: NCI-60 cell line screen, 48 h
The test system of experiment [1] is MDA-MB-468 breast.
Experiment [2] concerns HCT-15 colon.
For experiment [3], the system named is K-562 leukemia.
Experiment [4] concerns SR leukemia.
In experiment [5] the test system is MOLT-4 leukemia.

In the case of `CC/C(=C(\c1ccc(O)cc1)c1ccc(OCCNC)cc1)c1ccccc1`, in experiment [1], the GI50 is 1.59 µM and 1.53 µM and 1.51 µM; the TGI was 3.2 µM and 2.98 µM and 3.21 µM.

As to `COc1cc(/C=C2\C(=O)N(c3c(Cl)cccc3Cl)c3ccccc32)cc(OC)c1O`, in experiment [1], the GI50 is 2.27 µM and the TGI came out at 12.9 µM.

With `Nc1cc(C(F)F)c(-c2nc(N3[C@@H]4CC[C@H]3COC4)nc(N3[C@@H]4CC[C@H]3COC4)n2)cn1`, in experiment [1], the GI50 is 0.249 µM and the TGI was 3.03 µM.

Take `Cc1oc2c(c1C(=O)c1ccccc1)C(=O)c1ccccc1C2=O`: in experiment [1], the GI50 is 1.74 µM and the TGI stood at 3.26 µM.

As for `C=CCSc1n[nH]c(-c2cccs2)n1`, in experiment [1], the GI50 was greater than 100 µM and the TGI was greater than 100 µM.

As to `NC(=O)c1c(OCc2c(F)cc(Br)cc2F)nsc1NC(=O)NCCCCN1CCCC1`, in experiment [1], the GI50 is 1.49 µM and the TGI worked out at 3.18 µM.

With `O=C1Nc2ccccc2SC1C1SC(=S)N(Cc2ccccc2)C1=O` (configuration not stated), in experiment [1], the GI50 is 1.05 µM and the TGI was found to be 23.4 µM.

With `COC(=O)c1c2c(c(C)[n+]([O-])c1C)C(=O)C(NCc1ccc(F)c(Cl)c1)=CC2=O`, in experiment [1], the GI50 is 1.12 µM and the TGI turned out to be 3.04 µM.

With `COCCOC(C)C(/C=N/NC(N)=S)=N/NC(N)=S` (configuration not stated), in experiment [1], the GI50 was 0.0217 µM and the TGI was greater than 100 µM.

Take `C[C@]12CC[C@@H]3c4ccc(O)cc4CC[C@H]3[C@@H]1CC[C@@H]2NS(=O)(=O)c1cccc(Br)c1`: in experiment [1], the GI50 is 2.43 µM and the TGI turned out to be 11.5 µM.

On to `N#CC1=C(N)Oc2c(sc3c(F)cccc23)C1c1ccc([N+](=O)[O-])cc1` (configuration not stated), for which, in experiment [1], the GI50 was 0.0787 µM and the TGI amounted to 0.902 µM.

As to `C#C[C@]1(O)CC[C@H]2[C@@H]3CC=C4c5nc(Nc6ccc(OC)cc6OC)sc5CC[C@]4(C)[C@H]3CC[C@@]21C`, in experiment [1], the GI50 was 1.84 µM and the TGI was 4.08 µM.

With `CCn1c2ccccc2c2cc(-n3nncc3-c3ccccc3)ccc21`, in experiment [1], the GI50 was 0.437 µM and the TGI was greater than 100 µM.

In the case of `C=CC(=O)Nc1cc2c(Nc3ccc(OCc4ccccn4)c(Cl)c3)ncnc2cc1OCCN1CCOCC1`, in experiment [1], the GI50 was 0.0143 µM and the TGI was determined as 0.282 µM.

Regarding `Cc1ccnc2c1NC(=O)c1cccnc1N2C1CC1`, in experiment [1], the GI50 is greater than 100 µM and the TGI was greater than 100 µM.

As to `Cc1cc(NC(=O)CCc2ccc(N3C(N)=NC(N)=NC3(C)C)cc2)ccc1S(=O)(=O)F`, in experiment [1], the GI50 is 0.736 µM and the TGI was greater than 82.9 µM.

For the compound `Cc1cc(C)cc(C(=O)Nc2cccc(-c3cn(-c4ccc(S(N)(=O)=O)cc4)nn3)c2)c1`, the GI50 was greater than 10 µM in experiment [2], 2.92 µM in experiment [3], 1.83 µM in experiment [4] and 5.58 µM in experiment [5]. The TGI in experiment [2], in experiment [3], in experiment [4] and in experiment [5] was greater than 10 µM in each case.

For `O=C(NNc1nc2cc(F)ccc2n2c(CN3CC4(COC4)C3)ccc12)c1cnccn1`, in experiment [1], the GI50 is 0.302 µM and the TGI turned out to be 1.24 µM.

For the compound `COc1cc2cc(C(=O)O)[nH]c2cc1OCc1ccccc1`, in experiment [1], the GI50 is greater than 100 µM and the TGI was greater than 100 µM.

In the case of `NC(N)=NC(N)=NCCc1ccccc1`, in experiment [1], the GI50 was 6.58 µM and 15 µM; the TGI was 94.9 µM and > 100 µM.

In the case of `O=S(=O)(Nc1ccc(Cl)c(C(F)(F)F)c1)c1ccc(-c2cnc(C3CC3)o2)cc1`, in experiment [1], the GI50 is 0.144 µM and the TGI is 3.1 µM.

Take `O=C(N/N=C/c1cc2ccccc2c2ccccc12)c1cc(O)c(O)c(O)c1`: in experiment [1], the GI50 is 2.46 µM and the TGI was found to be 6.88 µM.

On to `CCN(C)S(=O)(=O)Nc1cccc(Nc2ncnc3cc(NC(=O)CCl)ccc23)c1Cl`, for which, in experiment [1], the GI50 was 2.34 µM and the TGI came to 6.7 µM.

For the compound `CCOC(=O)c1c(C)c2c(n1C)CSc1cc(S(=O)(=O)c3ccccc3)c(=O)[nH]c1-2`, in experiment [1], the GI50 was 14.2 µM and the TGI is greater than 100 µM.

As for `O=C(Oc1ccc([N+](=O)[O-])cc1)N1CCC(C(O)(c2ccc3c(c2)OCO3)c2ccc3c(c2)OCO3)CC1`, in experiment [1], the GI50 was greater than 100 µM and the TGI was greater than 100 µM.

For `CCOC(=O)C(=Cc1ccc(Br)cc1)C(=O)OCC`, in experiment [1], the GI50 was 1.67 µM and the TGI was determined as 3.45 µM.

Regarding `N#Cc1cccc(Nc2nccc(-c3cnn4ncccc34)n2)c1`, in experiment [1], the GI50 is 0.00804 µM and the TGI stood at 0.0293 µM.

Consider `O=C(Nc1ccc(-n2cc(-c3ccncc3)c(-c3ccc(Cl)c(O)c3)n2)cc1)c1cc(Cl)cc(Cl)c1`, for which, in experiment [1], the GI50 was 6.07 µM and the TGI was greater than 100 µM.

Take `O=[N+]([O-])c1ccc2nc(N/N=C/c3ccc(O)cc3)sc2c1`: in experiment [1], the GI50 is 3.91 µM and the TGI was 20.8 µM.

Take `COc1cc2c(cc1OC)C(Sc1ccc(F)cc1)c1c(nc(N)c(C#N)c1N)O2` (configuration not stated): in experiment [1], the GI50 is 0.511 µM and the TGI was 1.84 µM.

As for `O=C1C(Nc2ccccn2)=C(I)C(=O)c2ncccc21`, in experiment [1], the GI50 was 1.22 µM and the TGI is 2.77 µM.

As to `Cc1cc(N2CCN(C)CC2)nc(NC2CCCC(Nc3ccnc4cc(Cl)ccc34)C2)n1` (configuration not stated), in experiment [1], the GI50 was 1.67 µM and the TGI was 4.36 µM.

Turning to `N#Cc1ccc(-n2cnc(NC(=O)[C@H]3CCN(C#N)C3)c2)cc1`, in experiment [1], the GI50 is 0.337 µM and the TGI came out at 2.45 µM.

Consider `CS(=O)(=O)c1ccc(C(F)(F)F)cc1NC(=O)Nc1cnc(Oc2ccc(-c3cc(Cl)cnc3N)cc2)nc1`, for which, in experiment [1], the GI50 was 2.02 µM and the TGI stood at 7 µM.

On to `CCCn1cnc2c(c1=N)C(c1ccc(OC)cc1)c1sc3c(CC)cccc3c1O2` (configuration not stated), for which, in experiment [1], the GI50 is 0.422 µM and the TGI was found to be 4.27 µM.

On to `O=[N+]([O-])c1ccc(N(CCO)CCO)c2c1no[n+]2[O-]`, for which, in experiment [1], the GI50 was 0.625 µM and the TGI came to 2.86 µM.

As to `Cc1ccc(NC2=C(Cl)C(=O)c3nc(C)ccc3C2=O)cc1`, in experiment [1], the GI50 is 0.329 µM and the TGI was 1.31 µM.

Take `CN(C)CCCC1(c2ccc(F)cc2)OCc2cc(-c3ccc4cc[nH]c4c3)ccc21` (configuration not stated): in experiment [1], the GI50 is 1.75 µM and the TGI amounted to 3.44 µM.
